Assay results as given in patent US20190134000A1, “COMPOUNDS TO PROMOTE NORMAL PROCESSING OF APP” (Buck Institute for Research on Aging, priority 2016, published 2019).
Values after ≈ are worked out from the molar mass of the structure shown. “Also recorded” adds a separate entry of the source. Where two headings read alike, the source gives them in different places.

How the values were obtained:
CYP3A4 = CYP3A4 (Homo sapiens, UniProt P08684); assay: CYP inhibition screen CYP3A4; format: in vitro ADME; conditions: for inhibition at 10 µM / inhibition at 30 µM: human
CYP3A4, sequence (P08684 whole entry): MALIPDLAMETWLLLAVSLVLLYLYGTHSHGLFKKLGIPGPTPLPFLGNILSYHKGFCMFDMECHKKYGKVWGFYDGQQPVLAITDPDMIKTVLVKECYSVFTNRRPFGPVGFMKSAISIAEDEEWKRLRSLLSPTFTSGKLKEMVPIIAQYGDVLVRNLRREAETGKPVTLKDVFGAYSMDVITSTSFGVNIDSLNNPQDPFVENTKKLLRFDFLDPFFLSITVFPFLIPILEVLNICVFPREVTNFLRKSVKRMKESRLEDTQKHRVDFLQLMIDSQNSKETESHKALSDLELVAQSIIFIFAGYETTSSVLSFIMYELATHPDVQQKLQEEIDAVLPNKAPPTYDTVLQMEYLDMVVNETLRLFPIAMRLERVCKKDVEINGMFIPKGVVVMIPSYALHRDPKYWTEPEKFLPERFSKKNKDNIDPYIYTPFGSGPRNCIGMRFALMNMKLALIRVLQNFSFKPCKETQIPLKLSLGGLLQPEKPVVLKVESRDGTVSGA

AD model mouse = assay: In vivo study of C41 and F03 in an AD model mouse
Text: Panel A: Novel object preference; Panel B: Novel location preference; Panel C: sAPPα.
Panel A: sAPPβ; Panel B: the sAPPα/sAPPβ ratio.
Compounds meeting the initial screening criteria were then subjected to in vivo testing.

[1] = test system: muscarinic acetylcholine receptors; assay: Muscarinic receptor binding in panel; conditions: panel binding test
S9 stability, guinea pig = format: in vitro ADME
CYP2D6 = CYP2D6 (Homo sapiens, UniProt P10635); assay: CYP inhibition screen CYP2D6; format: in vitro ADME
CYP2D6, sequence (P10635 whole entry): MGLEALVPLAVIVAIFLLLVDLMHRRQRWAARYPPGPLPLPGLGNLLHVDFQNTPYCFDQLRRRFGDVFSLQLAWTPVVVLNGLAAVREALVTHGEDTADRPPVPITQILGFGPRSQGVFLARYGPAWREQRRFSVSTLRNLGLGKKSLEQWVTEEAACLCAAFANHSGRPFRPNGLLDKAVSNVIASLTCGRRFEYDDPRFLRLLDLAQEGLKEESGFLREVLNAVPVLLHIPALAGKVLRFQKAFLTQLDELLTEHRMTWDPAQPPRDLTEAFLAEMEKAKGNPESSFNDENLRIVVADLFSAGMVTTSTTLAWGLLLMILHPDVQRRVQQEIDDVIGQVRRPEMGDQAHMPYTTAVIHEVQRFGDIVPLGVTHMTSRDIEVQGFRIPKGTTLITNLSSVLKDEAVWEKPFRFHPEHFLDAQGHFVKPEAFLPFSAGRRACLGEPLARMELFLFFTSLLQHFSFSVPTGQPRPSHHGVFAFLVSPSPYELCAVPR

in vitro = assay: in vitro
Protocol: The second batch of C41 was tested for plasma protein binding, ADME-tox screening (microsomal intrinsic clearance), and ADME-tox screening (CYP inhibition screen). PK in rats was determined to determine a dose of non-GLP Pharm-Tox screening. Additionally, acute toxicity in rats (pre-subchronic toxicity) and non-GLP subchronic toxicity was determined.

[2] = Acute non-GLP toxicity study, oral 450 mg/kg; format: in vivo, rats; conditions: for concentration at 24 h: rat, in vivo
Protocol: Acute non-GLP toxicity study was performed using an oral dose of 450 mg/kg. At 24 hours post-dosing, brain levels were 2924 ng/g and plasma levels were 115 ng/ml.

AD mouse model = assay: Synaptic load, synaptophysin labeling of hippocampus; format: in vivo
Protocol: FIG. 16 illustrates mechanistic confirmation studies for determination of synaptic load.
Mechanistic confirmation studies for determination of synaptic load were performed using antibody-labeling of synaptophysin with a green fluorescent tag. […] The improvements in NLR and NOR may be correlated to the restoration of synaptic load, increases in sAPPα or the sAPPα/sAPPβ ratio; increases in the sAPPα/Aβ1-42 ratio; decreases in the p-tau/tau ratio, and/or decreases in APPneo (c-terminal cleavage).

[3] = Panel binding test (Cerep broad screening panel)
in vivo = conditions: rat
Protocol: Top panel: Levels after oral delivery at 10 mk at 1, 8, and 24 hours; levels after oral delivery at 40 mk at 24 hours only. Bottom panel: IV delivery at 2.5 mk. Note brain levels in ng/g, plasma levels in ng/ml.
FIG. 13 illustrates C41 pharmacokinetic parameters in rat.
C41 pharmacokinetics were determined in a rat (see, FIG. 12, Table 9). […] Brain tissue was collected at 1, 8, and 24 hours. Plasma peak was 150 ng/ml and brain was 3251 ng/g. C41 peaked at 8 hours. […] Brain tissue was collected at 30 min, 6 hours, and 24 hours. Plasma peak was 564 ng/ml, at 1 minute and brain peak was 629 ng/g at 30 minutes. The 30 minute brain:plasma ratio was 8. Oral availability was determined to be about 100% (see, e.g. FIG. 13).

CYP2C9 = CYP2C9 (Homo sapiens, UniProt P11712); assay: CYP inhibition screen CYP2C9; format: in vitro ADME
CYP2C9, sequence (P11712 whole entry): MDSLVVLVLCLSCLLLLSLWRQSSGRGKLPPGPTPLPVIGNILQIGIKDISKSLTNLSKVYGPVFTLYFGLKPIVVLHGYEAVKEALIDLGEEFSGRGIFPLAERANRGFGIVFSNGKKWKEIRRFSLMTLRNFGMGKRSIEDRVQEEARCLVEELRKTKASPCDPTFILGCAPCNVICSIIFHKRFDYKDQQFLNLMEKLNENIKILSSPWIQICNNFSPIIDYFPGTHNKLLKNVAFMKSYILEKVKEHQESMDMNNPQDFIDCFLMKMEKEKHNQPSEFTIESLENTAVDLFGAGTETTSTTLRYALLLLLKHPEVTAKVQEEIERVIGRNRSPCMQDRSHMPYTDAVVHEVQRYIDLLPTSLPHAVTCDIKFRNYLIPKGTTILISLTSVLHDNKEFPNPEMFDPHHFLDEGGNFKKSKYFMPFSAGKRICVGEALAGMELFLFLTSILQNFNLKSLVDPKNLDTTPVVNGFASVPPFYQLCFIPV

S9 stability, rat = format: in vitro ADME
S9 stability, monkey = format: in vitro ADME
B254 mice = assay: C41 lead confirmation in B254 mice; format: in vivo; conditions: 4 weeks oral 4 mkd
Text: FIG. 15 illustrates the result of C41 lead confirmation in B254 mice. Panel A: Novel Location Recognition; Panel B: Novel Object Recognition; Panel C: sAPPα; Panel D: Aβ40; Panel E: Aβ42; Panel F: p-tau/tau.

CN1[C@@H]2CC[C@H]1C[C@@H](OC(=O)c1c[nH]c3cc(F)ccc13)C2 [Compound C41, (1R,3R,5S)-8-methyl-8-azabicyclo[3.2.1]octan-3-yl 6-fluoro-1H-indole-3-carboxylate]
IC50 (CYP3A4): > 30 µM
inhibition at 10 µM (CYP3A4; CYP3A4 midazolam inhibition): 3.1%
inhibition at 30 µM (CYP3A4; CYP3A4 midazolam inhibition): 3.8%
inhibition at 10 µM (CYP3A4; CYP3A4 testosterone inhibition): 5.2%
inhibition at 30 µM (CYP3A4; CYP3A4 testosterone inhibition): 2.5%
Aβ1-42 levels in vivo (AD model mouse): did not change
Aβ40/42 ratio in vivo (AD model mouse): not changed
sAPPα in vivo (AD model mouse): increased significantly
sAPPα/Aβ1-42 ratio in vivo (AD model mouse): not increased
sAPPα/sAPPβ ratio in vivo (AD model mouse): significantly greater increase with C41 than F03
sAPPβ in vivo (AD model mouse): greater decrease in sAPPβ than F03
short-term working object memory (novel object preference) (AD model mouse): approximately 85 % of NTg level
spatial memory, novel location recognition test (AD model mouse): improved spatial memory
binding to muscarinic acetylcholine receptors [1]: only weak binding; also recorded: profile. Some
Metabolic Half-Life Guinea Pig S9 (S9 stability, guinea pig): >1 h
half-life (S9 stability, guinea pig): > 1 h
solubility (physchem): 80 mM (≈ 24.2 mg/mL)
solubility (physchem; water): 85 mM (≈ 25.7 mg/mL)
IC50 (CYP2D6): > 30 µM
inhibition at 10 µM (CYP2D6; human): 19.9%
inhibition at 30 µM (CYP2D6; human): 36.1%
microsomal CLint at 1 μM (in vitro; dog, microsomes, NADPH-Dependent CLint): 45.7 µL/min/mg
half-life at 1 μM (in vitro; dog, microsomes, NADPH-Dependent T1/2): 0.843 h
microsomal CLint at 1 μM (in vitro; dog, microsomes, NADPH-Free CLint): < 9.6 µL/min/mg
half-life at 1 μM (in vitro; dog, microsomes, NADPH-Free T1/2): > 4 h
Plasma protein binding (in vitro; human): 74.3 (human)
recovery (in vitro; human): 115%
half-life (in vitro; human, microsomes): > 4 h
half-life at 1 μM (in vitro; human, microsomes): > 4 h
microsomal CLint at 1 μM (in vitro; human, microsomes): < 9.6 µL/min/mg
NADPH-Free CLint (in vitro; human, microsomes, 1 μM): <9.6 µL/min/mg
NADPH-Free T1/2 (in vitro; human, microsomes, 1 μM): >4 h
Mean Plasma Fraction Bound (in vitro; human, plasma): 74.3%
fraction unbound (in vitro; human, plasma): 0.257
microsomal CLint at 1 μM (in vitro; rat, microsomes, NADPH-Dependent CLint): 187 µL/min/mg
half-life at 1 μM (in vitro; rat, microsomes, NADPH-Dependent T1/2): 0.207 h
microsomal CLint at 1 μM (in vitro; rat, microsomes, NADPH-Free CLint): < 9.6 µL/min/mg
half-life at 1 μM (in vitro; rat, microsomes, NADPH-Free T1/2): > 4 h
acute toxicity finding ([2]; oral 450 mg/kg, likely due to the corn syrup vehicle): some dilation of the vessels on the surface of the intestine
concentration at 24 h ([2]; po, 450 mg/kg): 0.115 µg/mL
concentration at 24 h ([2]; oral 450 mg/kg, 24 hours post-dosing, read-out: brain levels): 2920 ng/g
synaptic load / synaptic density in hippocampus (AD mouse model): restore synaptic density; also recorded: restored synaptic load
profile in panel binding test / activity in broad screening panel [3]: clean profile; also recorded: Overall clean
Oral availability (in vivo): about 100%
bioavailability (in vivo): ~98%
AUC (0-t) (in vivo; iv): AUC (0-t) ng-min/g = 400605.0
AUC(0-t) (in vivo; iv): 0.33 µg·h/mL
Clearance (CL) (in vivo; iv): Clearance (CL) g/min/Kg = 0.006.
Kp at 0.5 h (in vivo; iv): 8
Volume of distribution steady state (in vivo; iv): g/Kg = 2.9.
clearance (in vivo; iv): 6.72 L/h/kg
AUC (in vivo; iv, 2.5 mg/kg): 0.373 µg·h/mL
MRT (in vivo; iv, 2.5 mg/kg, MRT): 6.63 h
Cmax (in vivo; iv, Cmax): 629 ng/g
Cmax (in vivo; iv, Cmax plasma): 0.564 µg/mL
MRT (in vivo; iv, Mean residence time (MRT)): 6.64 h
MRT (in vivo; iv, Mean residence time (MRT) area): 8.33 h
AUC (0-t) (in vivo; po): AUC (0-t) ng-min/g = 793672.5
AUC(0-t) (in vivo; po): 1.97 µg·h/mL
Clearance (CL) (in vivo; po): Clearance (CL) g/min/Kg = 0.087.
T1/2 elimination (in vivo; po): T1/2 elimination = 154.022 min.
clearance (in vivo; po): 5.04 L/h/kg
time of peak (in vivo; po): 8 h
AUC (in vivo; po, 10 mg/kg): 1.97 µg·h/mL
MRT (in vivo; po, 10 mg/kg, MRT): 21.7 h
Cmax (in vivo; po, Cmax): 3250 ng/g
Cmax (in vivo; po, Cmax plasma): 0.15 µg/mL
half-life (in vivo; po, T1/2 elimination): 2.41 h
Tmax (in vivo; po, Tmax): 6.33 h
Tmax (in vivo; po, Tmax oral): 8 h
IC50 (CYP2C9): > 30 µM
inhibition at 10 µM (CYP2C9; human): 11.4%
inhibition at 30 µM (CYP2C9; human): 21.6%
half-life (S9 stability, rat): 0.363 h
Metabolic Half-Life Monkey S9 (S9 stability, monkey): >1 h
half-life (S9 stability, monkey): > 1 h
Aβ40 (B254 mice): trend for Aβ40 and 42 to decrease
Aβ42 (B254 mice): trend for Aβ40 and 42 to decrease
novel location recognition (B254 mice): some improvement
novel object recognition (B254 mice): significant improvement
p-Tau/Tau ratio (B254 mice): significantly decreased
